Measurements from US20050044581A1, “Animals and cells containing a mutated alpha2/omega1 gene” (priority 2003, published 2005).

Legend:
[1] = tested on: R217A knock-in and wild-type mice; assay: Chronic constriction injury (CCI)-induced static allodynia, von Frey hairs; format: in vivo, mouse; conditions: for efficacy in CCI-induced allodynia: 30-100mg/kg, p.o.; for effect on CCI-induced punctate allodynia: sub cutaneous 30-100mg/kg, FIG. 8
From the text: Animals were placed in an anaesthetic chamber and anaesthetised with a 2% isofluorane O2 mixture. The right hind thigh is shaved and swabbed with 1% iodine. Animals were then transferred to a homeothermic blanket for the duration of the procedure and anaesthesia maintained during surgery via a nose cone. The skin was cut along the line of the thigh bone. The common sciatic nerve was exposed at the middle of the thigh by blunt dissection through biceps femoris. Proximal to the sciatic trifurcation, about 5mm of nerve was freed by inserting forceps under the nerve and the nerve gently lifted out of the thigh. The forceps were gently opened and closed several times to aid clearance of the fascia from the nerve. Suture was pulled under the nerve using forceps and tied in a simple knot until slight resistance was felt and then double knotted. The procedure was repeated until 3 ligatures (4-0 silk) were tied loosely around the nerve with approx 1 mm spacing. The incision was closed in layers and the wound treated with topical antibiotics.
Animals were habituated to wire test cages prior to the assessment of allodynia. Static allodynia was evaluated by application of von Frey hairs (Stoelting, Wood Dale, Ill., U.S.A.) in ascending order of force ([…], 0.4, 0.6, 1.0, 1.5 and 2.0 g) to the plantar surface of hind paws. Each von Frey hair was applied to the paw for a maximum of 6 seconds, or until a withdrawal response occurred. Once a withdrawal response to a von Frey hair was established, the paw was re-tested, starting with the filament below the one that produced a withdrawal, and subsequently with the remaining filaments in descending force sequence until no withdrawal occurred. Each animal had both hind paws tested in this manner. The lowest amount of force required to elicit a response was recorded as paw withdrawal threshold (PWT) in grams. […]
Following drug administration PWT were re-assessed for up to 4 h. The static allodynia data is expressed as median force (g) required to induce a paw withdrawal in 6-7 animals per group (vertical bars represent 1st and 3rd quartiles) *P<0.05, **P<0.01***P<0.005 (Mann Whitney U test) from vehicle treated group at each time point.
It was examined whether pregabalin produced an anti-allodynic action in both the knock-in and wild-type mice. […] Baseline (BL) paw withdrawal thresholds (PWT) to von Frey hairs were assessed. Following drug administration PWT were re-assessed for up to 4 h. The static allodynia data is expressed as median force (g) required to induce a paw withdrawal in 6-7 animals per group (vertical bars represent 1st and 3rd quartiles) *P<0.05, **P<0.01***P<0.005 (Mann Whitney U test) from vehicle treated group at each time point.

[2] = tested on: WT, HET and KI R217A mice and parent strains; assay: Vogel water-lick conflict; format: in vivo, mouse; conditions: for minimally effective dose (MED), Vogel: IP (doses tested in mg/kg); for anxiolytic-like effect / punished licking, Vogel: R217A knockins (homozygous)
Procedure: Two strains used to generate the mutant mice, C57BU6J (Jackson Laboratories), and 129S6/SvEV (Taconic Farms), were also evaluated. Albino or C57BL/6J-Tyr were also included in the experiments for comparison purposes. Male C57BL/6J (Jackson Laboratories), and 129S6/SvEV (Taconic Farms) mice were received at 8 weeks old in quantities sufficient for each study to be completed in one experiment. Parent strains were housed one week prior to testing. All animals were housed in a temperature and humidity controlled room under a 12L: 12D schedule (lights on @06:00 h). All mice were housed in isolators (3-5/cage) with the exception of C57BU6J mice that were housed on wire racks (12/cage).
On the side of each chamber (1.5 in. above the floor) a module optical lickometer was mounted. The lickometer was used to measure licking from a drink tube attached to a water bottle mounted on the exterior of the chamber. A photo beam was piped via glass rods across a gap at the end of the drink tube. The subject's tongue breaks the beam when it drinks from the tube and each lick was automatically recorded. […] The reduced chamber space limited the animal's activity and directed behavior towards the drink tube during a 10-minute session. The front and back of the test chamber was made of clear Plexiglas. The front door was covered to reduce distractions from inside the test room. The back of the test chamber faced a wall, away from the flow of traffic in the testing room, and remained uncovered to provide the opportunity for observations. Shock was delivered between the grid floor and the drink tube using a (Coulbourn) programmable universal shocker for a duration of one second, but terminated immediately when contact between the animal and drink tube was broken.
PROCEDURE: On day one, after 24 hours of water deprivation, experimental subjects were placed in the test chambers and allowed to drink unpunished for a 10-minute training session. Mice were required to complete a 100-150 lick criteria during the training session. Subjects that completed the training criteria prior to the end of the 10-minute session were removed so that drinking was restricted in all subjects to 25% of their total daily intake. […] Immediately after the day one session mice were returned to their home cages and deprived of water and food for an additional 24 hours. On test day two, mice were dosed by intraperitoneal (IP) injection with vehicle or test compound. After a 60 or 120-minute absorption period mice were placed into the test chambers for a 10-minute test session. During the test, shock was delivered on a fixed ratio (FR) 10 schedule. Therefore, after every 10th lick the subject received a mild shock. […] A low number of shock episodes accepted reflects anxiety-related behavior. Standard anxiolytic drugs produce effects that allow mice to overcome the behavioral inhibition and drink despite the shock. […] All data were analyzed using a one-way ANOVA/Dunn's Method.
DRUGS: Pregabalin was dissolved in physiological saline for all experiments. The positive control diazepam was suspended in 2% cremophor in physiological saline. All drugs were dosed in a volume of 10 mL/kg.
C57BL/6J mice were tested at 0.4 mA, C57BL/6J-Tyr mice were tested at 0.1 mA and 129S6/SvEV mice were tested at 0.6 mA. Each dose-response study included a no-shock vehicle control group directly compared to the concurrent vehicle punished-responding group to evaluate the suppression of drinking. […] For all experiments, sedation was noted when both symptoms of ataxia (unsteady gait) and a reduced response to handling were observed after dosing and described as mild, moderate or severe.
WT mice were tested at 0.1 mA, HET mice were tested at 0.4 mA and KI mice were tested at 0.7 InA. Each experiment included a no-shock vehicle control group for direct comparison to the concurrent vehicle punished-responding group to determine percent suppression of drinking.

CC(C)C[C@H](CN)CC(=O)O [pregabalin]
efficacy in CCI-induced allodynia ([1]; knock-in animals): failed to demonstrate any efficacy
effect on CCI-induced punctate allodynia ([1]; knock-in mice): no effect
efficacy in CCI-induced allodynia ([1]; wild type mice): typical efficacy
effect on CCI-induced punctate allodynia ([1]; wild type mice): significant blockade
minimally effective dose (MED), Vogel ([2]; 129S6/SvEv, shock 0.6 mA): 32
minimally effective dose (MED), Vogel ([2]; C57BL/6J, shock 0.4 mA): 10
minimally effective dose (MED), Vogel ([2]; C57 albino, shock 0.1 mA): 10
minimally effective dose (MED), Vogel ([2]; Hets, shock 0.4 mA): 10
increase in punished responding @ 100, Vogel ([2]; Knockins, dose 100): non-significant
minimally effective dose (MED), Vogel ([2]; Knockins, shock 0.7 mA): inactive
anxiolytic-like effect / punished licking, Vogel [2]: does not produce a statistically significant increase
anxiolytic-like effect / punished licking, Vogel ([2]; listed as Pregabalin): Pregabalin did not produce a significant anxiolytic-like effect in R217A knockins, and no evidence was obtained relating phenotype to particular parent strain
minimally effective dose (MED), Vogel ([2]; Wild Type, shock 0.1 mA): 32
